{"source": "paper PMC4871512", "about": "“Drug-Based Lead Discovery: The Novel Ablative Antiretroviral Profile of Deferiprone in HIV-1-Infected Cells and in HIV-Infected Treatment-Naive Subjects of a Double-Blind, Placebo-Controlled, Randomized Exploratory Trial” (PLoS ONE, 2016)", "key": {"[1]": {"target": "T1, deoxyhypusyl hydroxylase (DOHH) (Homo sapiens, UniProt Q9BU89)", "T1 construct": "endogenous in cells; host or cells: single-donor primary peripheral blood mononuclear cells (PBMCs), uninfected or infected with a clinical HIV-1 isolate", "T1 sequence (Q9BU89 1-302)": "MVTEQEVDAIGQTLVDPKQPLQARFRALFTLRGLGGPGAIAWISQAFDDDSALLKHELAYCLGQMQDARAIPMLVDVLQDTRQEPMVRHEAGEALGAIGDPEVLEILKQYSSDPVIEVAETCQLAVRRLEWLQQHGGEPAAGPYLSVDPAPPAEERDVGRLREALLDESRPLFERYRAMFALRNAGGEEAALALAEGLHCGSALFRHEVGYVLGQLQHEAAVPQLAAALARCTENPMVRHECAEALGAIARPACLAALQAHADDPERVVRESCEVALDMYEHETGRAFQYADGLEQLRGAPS", "test": "Cellular DOHH activity by metabolic labeling of deoxyhypusyl-eIF5A and hypusyl-eIF5A with (1,8-3H)spermidine", "assay_type": "cell-based", "experimental": "Fig 2 Effect of deferiprone in HIV-infected primary cells: Apoptotic DNA fragmentation, deoxyhypusyl-eIF5A accumulation, and DOHH activity. Apoptotic DNA fragmentation (Panel A) was detected by terminal deoxynucleotide transferase dUTP nick end labeling (TUNEL) of single-donor peripheral blood mononuclear cells, maintained in short-term non-replenished cultures as described. Cells were left uninfected and/or untreated; or infected immediately after plating with clinical HIV-1 isolate and 12 hours after infection, treated with 200 μM deferiprone. […] The dose-effect curve for inhibition of cellular DOHH by increasing deferiprone concentrations in short-term non-replenished single-donor cultures (Panel C) was calculated from the accumulation of its ^3H-labeled substrate and the decrease of its ^3H-labeled product; error bars are at the size of the graph symbols and not shown. Black, HIV-infected untreated cells; green, uninfected untreated cells; blue, uninfected deferiprone-treated cells; red, HIV-infected deferiprone-treated cells; large triangles, HIV-infected cells (red) or uninfected cells (blue) treated with 200 μM deferiprone.\nMetabolic labeling with (1,8-^3H)spermidine at 5 μCi/ml for 18 hours was performed as described in primary cell cultures of the same volume, viability by dye exclusion, cell number, and donor origin. Following acid hydrolysis of each sample for release of radiolabeled hypusine and deoxyhypusine, separation by ion-exchange chromatography, and liquid scintillation measurement of incorporated label, 18 fractions were collected and the counts in the eluted fractions were proportionally adjusted to a total of 10,000 cpm per sample. This normalization adjusts for variances in the radioactivity of different samples and allows direct comparison of their hypusine-deoxyhypusine elution profiles. Only the hypusine- / deoxyhypusine-containing fractions (6 through 14) were used for analysis."}, "[2]": {"details": "human, in vivo; cited from earlier work"}, "[3]": {"system": "HIV-1 clinical isolate in PBMCs", "test": "HIV-1 RNA copy number (Amplicor HIV-1 Monitor) in supernatant of isolate-infected PBMC cultures", "assay_type": "cell-based", "details": "for viral breakthrough during monotherapy: one week to one month", "experimental": "Cell-free supernatants were used for p24 and HIV-1 RNA measurements. p24 core antigen in the supernatant was quantified by ELISA (Retrotek HIV-1 p24®; ZeptoMetrix Corp.; Buffalo, NY). HIV-1 RNA copy number in the supernatant of PBMC cultures and in plasma of trial subjects enrolled in the exploratory deferiprone trial was determined with a PCR-based and FDA-approved assay (Amplicor HIV-1 Monitor®; Roche Diagnostics Corp.; Indianapolis, IN). For clinical samples, the assay was used per the Standard Specimen Processing Procedure (sensitivity limit 400 copies/ml); for cell culture samples, the assay was used in both the Standard Specimen Processing and the UltraSensitive Specimen Processing Procedure (sensitivity limit 50 copies/ml). If not specified further, the term “log10” designates the amount of HIV-1 RNA in the dimensions [log10 / ml]. The Roche Amplicor HIV-1 DNA Test (Roche Diagnostics Corp.; Indianapolis, IN) was used for detection of HIV-1 DNA with the primer pair SK431/462, which amplifies a highly conserved region of the gag genome of HIV-1 subtype B DNA. Results are shown per the assay’s optical readings of a chromogenic reaction that relates absorbance at 450 nm to the HIV-1 DNA copy number and is calibrated by assay-internal copy controls (A450 < 0.350, HIV-1 DNA absent; A450 ≥ 3.0, HIV-1 DNA present in excess of 20 copies; A450 between 0.350 and 3.0, HIV-1 DNA copy number per copy controls). Apoptotic DNA fragmentation was quantified flow-cytometrically, using a terminal deoxynucleotide transferase dUTP nick end-labeling (TUNEL) assay (APO-BRDU™; Phoenix Flow Systems; San Diego, CA). All experiments and assays were performed at least in duplicate.\nThe antiretroviral activity of deferiprone was tested in primary cultures of PBMCs, infected in vitro with clinical isolate or mock-infected with clinical isolate-identical cell- and virus-free medium as described. Briefly, to approximate the bi-compartmental mode of HIV-1 infection in vivo, which comprises a cell-generative compartment that provides non-infected but HIV-1 susceptible cells, and an HIV-generative compartment in which they become infected, the cultures were replenished as described with freshly obtained uninfected primary cells and medium at regular intervals, assuring identical cell number in both the treated and control cultures by computerized trypan blue exclusion analysis (Vi-CELL™; Beckman Coulter, Miami, FL); deferiprone concentrations were adjusted as indicated. This model allowed for months-long monitoring of HIV-1 parameters in productively infected cultures."}, "[4]": {"system": "HIV-infected cell lines and HIV-infected primary cells", "details": "cited from earlier work"}, "[5]": {"details": "after withdrawal of 100 μM deferiprone"}}, "note": "“Also recorded” adds a separate entry of the source."}
{"smiles": "Cc1c(O)c(=O)ccn1C", "note": "[deferiprone, 3-hydroxy-1,2-dimethylpyridin-4-one]", "values": [{"measurement": "newly synthesized deoxyhypusyl-eIF5A accumulated in HIV-infected treated cells, higher than in uninfected treated cultures", "setting": "[1]; 200 μM deferiprone", "value": "~40", "unit": "%"}, {"measurement": "DOHH activity in the primary cells", "setting": "[1]; at ≤100 μM deferiprone, infected and uninfected cultures", "value": "≥ 90", "unit": "%"}, {"measurement": "cellular DOHH activity", "setting": "[1]; at ≥200 μM deferiprone, infected and uninfected cultures", "value": "≤ 8", "unit": "%"}, {"measurement": "Abdominal pain/discomfort, patients affected", "setting": "[2]", "value": 10.4, "unit": "%"}, {"measurement": "Alanine aminotransferase increased, patients affected", "setting": "[2]", "value": 7.5, "unit": "%"}, {"measurement": "Arthralgia, patients affected", "setting": "[2]", "value": 9.8, "unit": "%"}, {"measurement": "Headache, patients affected", "setting": "[2]", "value": 2.5, "unit": "%"}, {"measurement": "Nausea, patients affected", "setting": "[2]", "value": 12.6, "unit": "%"}, {"measurement": "Neutropenia (neutrophils < 1.5 x 10^9/L and > 0.5 x 10^9/L), patients affected", "setting": "[2]", "value": 6.2, "unit": "%"}, {"measurement": "Vomiting, patients affected", "setting": "[2]", "value": 9.8, "unit": "%"}, {"measurement": "agranulocytosis (absolute neutrophil count less than 0.5 × 10^9/L), patients affected", "setting": "[2]", "value": 1.7, "unit": "%"}, {"measurement": "HIV-1 RNA decrease below the pre-treatment level of ≥10^6 copies/ml", "setting": "[3]; 100 μM deferiprone, on-drug", "value": "one order of magnitude"}, {"measurement": "HIV-1 RNA new steady state", "setting": "[3]; 100 μM deferiprone, on-drug", "value": "~10^5 copies/ml"}, {"measurement": "viral breakthrough during monotherapy", "setting": "[3]; 100 μM deferiprone, up to 35 days", "value": "did not elicit viral breakthrough; also recorded: did not allow viral breakthrough"}, {"measurement": "viral breakthrough during monotherapy", "setting": "[3]; 200 μM (supra-threshold) deferiprone, up to 35 days / 5 weeks", "value": "did not allow viral breakthrough; also recorded: did not elicit viral breakthrough; also recorded: neither allowed breakthrough"}, {"measurement": "time to reach HIV-1 RNA ≤10^3 copies/ml", "setting": "[3]; 200 μM deferiprone", "value": "2–4 weeks"}, {"measurement": "HIV-1 RNA decrease below its initial range", "setting": "[3]; 200 μM deferiprone (Fig 1B)", "value": "at least three orders of magnitude"}, {"measurement": "HIV-1 RNA level reached on-drug", "setting": "[3]; 200 μM deferiprone, depending on combination of viral isolate and PBMCs", "value": "≤ 10^3 copies/ml"}, {"measurement": "decline of HIV-1 RNA production", "setting": "[3]; 200 μM deferiprone, repeated experiments", "value": 3, "unit": "log"}, {"measurement": "off-drug period in which HIV-1 RNA production failed to resume", "setting": "[3]; after 200 μM deferiprone, replenished with fresh CD4+ lymphocytes (Fig 1)", "value": "at least 10 days"}, {"measurement": "post-treatment period to reacquire the original level of ≥10^6 copies/ml", "setting": "[3]; [5]", "value": "about 5 days"}, {"measurement": "rate of HIV-1 RNA rebound to the pre-treatment range", "setting": "[3]; [5]", "value": "+0.24 log10/ml/day"}, {"measurement": "viral copy number", "setting": "[3]; below 100 μM deferiprone", "value": "only marginally affected"}, {"measurement": "HIV-1 RNA reduction relative to untreated cultures", "setting": "[3]; off-drug after 200 μM deferiprone, apparently stable", "value": "~ 4 log"}, {"measurement": "HIV-1 inhibition in chronically infected cell lines", "setting": "[4]; 200 μM deferiprone", "value": "near-maximal HIV-1 inhibition"}, {"measurement": "ribosomal presence of gag mRNA, amount of intra- and extracellular p24, budding of viral particles", "setting": "[4]; treated HIV-infected cells", "value": "suppress"}]}
